Assay results: patent US20240083857A1, “2-Methyl-Quinazolines” (Bayer Pharma Aktiengesellschaft, priority 2017, published 2024)

Experiments:
[1] = target: human SOS1 (loading of human K-Ras^G12C-GDP with fluorescent GTP-analog) (Homo sapiens, UniProt Q07889); test: Biochemical assay 3: K-Ras^G12C activation assay by hSOS1 (HTRF); conditions: read-out: Assay 3 (KRAS-Activation by SOS no GTP) activity expressed as % inhibition at 20 μM; no GTP; at 20 μM
Text: Biochemical assay 3: K-Ras^G12C Activation Assay by hSOS1
K-Ras is a small GTPase that can bind GDP and GTP. The guanine nucleotide exchange factor SOS catalyzes the activation of K-Ras by promoting the exchange of GDP to GTP. SOS binds to K-Ras-GDP thereby opening the GDP-binding pocket to facilitate GDP release. Rebinding of excess nucleotide leads to dissociation of the K-Ras-SOS intermediate complex leaving K-Ras loaded with the nucleotide.
This assay quantifies human SOS1-mediated loading of human K-Ras^G12C-GDP with a fluorescent GTP-analog. Detection of successful loading is achieved by measuring homogenous time-resolved fluorescence resonance energy transfer (HTRF) from antiGST-Terbium (FRET donor) bound to GST-K-RasG12C to the loaded fluorescent GTP analog (FRET-acceptor).
The fluorescent GTP-analog EDA-GTP-Dy647P1 (2′/3′-O-(2-Aminoethyl-carbamoyl)-guanosine-5′-triphosphate labelled with Dy647P1 (Dyomics GmbH, Germany)) was synthesized by Jena Biosciences GmbH (Germany) and supplied as a 1 mM aqueous solution.
(§1) The assay buffer contained 10 mM HEPES pH 7.4 (Applichem), 150 mM NaCl (Sigma), 5 mM MgCl2 (Sigma), 1 mM DTT (Thermofisher), 0.05% BSA Fraction V, pH 7.0, (ICN Biomedicals), 0.0025% (v/v) Igepal (Sigma).
Concentrations of protein batches used were optimized to be within the linear range of the HTRF signal. A Ras working solution was prepared in assay buffer containing typically 100 nM GST-hK-RasG12C and 2 nM antiGST-Tb (Cisbio, France). A hSOS1 working solution was prepared in assay buffer containing typically 20 nM hSOS1 and 200 nM EDA-GTP-Dy647P1. An inhibitor control solution was prepared in assay buffer containing 200 nM EDA-GTP-Dy647P1 without hSOS1.
(§2) Fifty nl of a 100-fold concentrated solution of the test compound in DMSO were transferred into a black microtiter test plate (384 or 1536, Greiner Bio-One, Germany). For this, either a Hummingbird liquid handler (Digilab, MA, USA) or an Echo acoustic system (Labcyte, CA, USA) was used.
(§3) All steps of the assay were performed at 20° C. A volume of 2.5 μl of the Ras working solution was added to all wells of the test plate using a Multidrop dispenser (Thermo Labsystems). After 10 min preincubation, 2.5 μl of the hSOS1 working solution were added to all wells except for those wells at the side of the test plate that were subsequently filled with 2.5 μl of the inhibitor control solution. After 30 min incubation the fluorescence was measured with a Pherastar (BMG, Germany) using the HTRF module (excitation 337 nm, emission 1: 620 nm, emission 2: 665 nm).
(§4) IC50 values were calculated by 4-Parameter fitting using a commercial software package (Genedata Screener, Switzerland).

[2] = target: human SOS1 (nucleotide exchange of K-Ras^G12C) (Homo sapiens, UniProt Q07889); test: Biochemical assay 2: K-Ras^G12C activation assay by hSOS1 at high GTP concentration (HTRF); conditions: read-out: Assay 2 (KRAS-Activation by SOS high GTP) activity expressed as % inhibition at 20 μM; high GTP; at 20 μM
Text: Biochemical Assay 2: K-Ras^G12C Activation Assay by hSOS1 at High GTP Concentration
This assay quantifies human SOS1-mediated nucleotide exchange of K-Ras^G12C preloaded with a fluorescent […] and in presence of an excess of free GTP. Loaded hK-Ras^G12C generates a high HTRF-signal by energy transfer from antiGST-Terbium (FRET donor) bound to K-Ras to the loaded fluorescent GDP analog (FRET-acceptor). SOS1 activity exchanges the fluorescent GDP for non-fluorescent GTP and therefore leads to a reduction of the HTRF signal.
The fluorescent GDP-analog EDA-GDP-Dy647P1 (2′/3′-O-(2-Aminoethyl-carbamoyl)-guanosine-5′-diphosphate labelled with Dy647P1 (Dyomics GmbH, Germany)) was synthesized by Jena Biosciences GmbH (Germany) and supplied as a 1 mM aqueous solution.
Concentrations of protein batches used were optimized to be within the linear range of the HTRF signal.
Preparation of GST-tagged hK-Ras^Gl2C loaded with fluorescent nucleotide was performed as follows: incubation of 11.5 μM hK-Ras^Gl2C with 5-fold excess GDP-Dy647 nucleotide (54 μM) in 500 μl NLS-buffer (RAS activation Kit Jena Bioscience, Kat. #PR-950) for 10 min at 37° C. Addition of 20 μl 1 M MgCl2 (Sigma) to final 40 mM and store on ice. Purification into buffer (10 mM HEPES pH 7.4 (Applichem), 150 mM NaCl (Sigma), 5 mM MgCl2 (Sigma)) by use of a PD-Minitrap desalting column (GE Healthcare). Concentration of 1 ml purified hK-Ras-GDP-Dy647 is approx. 4-5 μM.
as §1
A Ras working solution was prepared in assay buffer containing typically 80 nM loaded GST-hK-RasG12C-EDA-GDP-Dy647P1 and 2 nM antiGST-Tb (Cisbio, France). A hSOS1 working solution was prepared in assay buffer containing typically 8 nM His-hSOS1 and 100 μM GTP (Jena Bioscience, Germany). An inhibitor control solution was prepared in assay buffer containing the same concentration of […].
as §2
as §3, with “2” for “10”, “20” for “30”
as §4

Structure (SMILES)	inhibition at 20 µM [1]	inhibition at 20 µM [2]
COc1cc2nc(C)nc(N[C@@H](C)c3ccc(-c4cncnc4)s3)c2cc1OC (stereo in doubt) [Example 42, 6,7-dimethoxy-2-methyl-N-{1-[5-(pyrimidin-5-yl)thiophen-2-yl]ethyl}quinazolin-4-amine]	48%	
COc1cc2nc(C)nc(N[C@@H](C)c3ccc(-c4ccc5c(ccn5C)c4)s3)c2cc1OC (stereo in doubt) [Example 49, 6,7-dimethoxy-2-methyl-N-{1-[5-{1-methyl-1H-indol-5-yl)thiophen-2-yl]ethyl}quinazolin-4-amine]	36%	35%
COCc1ccccc1-c1ccc([C@H](C)Nc2nc(C)nc3cc(OC)c(OC)cc23)s1 (stereo in doubt) [Example 50, 6,7-dimethoxy-N-[1-{5-[2-(methoxymethyl)phenyl]thiophen-2-yl}ethyl]-2-methylquinazolin-4-amine]	23%	
COc1cc2nc(C)nc(N[C@@H](C)c3ccc(-c4cccc(C(=O)N(C)C)c4)s3)c2cc1OC (stereo in doubt) [Example 51, 3-(5-{1-[(6,7-dimethoxy-2-methylquinazolin-4-yl)amino]ethyl}thiophen-2-yl)-N,N-dimethylbenzamide]	52%	
COc1cc2nc(C)nc(N[C@@H](C)c3ccc(-c4ccc(CO)s4)s3)c2cc1OC (stereo in doubt) [Example 52, (5′-{1-[(6,7-dimethoxy-2-methylquinazolin-4-yl)amino]ethyl}-2,2′-bithiophen-5-yl)methanol]	43%	
COc1cc2nc(C)nc(N[C@@H](C)c3ccc(-c4ccc5c(c4)OCCO5)s3)c2cc1OC (stereo in doubt) [Example 98, N-{1-[5-(2,3-dihydro-1,4-benzodioxin-6-yl)thiophen-2-yl]ethyl}-6,7-dimethoxy-2-methylquinazolin-4-amine]	24%	43%
COc1cc2nc(C)nc(N[C@@H](C)c3ccc(-c4ccc(-c5nnc(C)o5)cc4)s3)c2cc1OC (stereo in doubt) [Example 128, 6,7-dimethoxy-2-methyl-N-[1-{5-[4-(5-methyl-1,3,4-oxadiazol-2-yl)phenyl]thiophen-2-yl}ethyl]quinazolin-4-amine]	16%	
COc1cc2nc(C)nc(N[C@@H](C)c3ccc(-c4ccc(CNC(C)=O)cc4)s3)c2cc1OC (stereo in doubt) [Example 138, N-[4-(5-{1-[(6,7-dimethoxy-2-methylquinazolin-4-yl)amino]ethyl}thiophen-2-yl)benzyl)acetamide]	40%	
COc1cc2nc(C)nc(N[C@@H](C)c3ccc(-c4cccc(CNS(C)(=O)=O)c4)s3)c2cc1OC (stereo in doubt) [Example 139, N-[3-(5-{1-[(6,7-dimethoxy-2-methylquinazolin-4-yl)amino]ethyl}thiophen-2-yl)benzyl]methanesulfonamide]	41%	
COc1cc2nc(C)nc(N[C@@H](C)c3ccc(-c4ccc(CNS(C)(=O)=O)cc4)s3)c2cc1OC (stereo in doubt) [Example 140, N-[4-(5-{1-[(6,7-dimethoxy-2-methylquinazolin-4-yl)amino]ethyl}thiophen-2-yl)benzyl]methanesulfonamide]	33%	
CCCNC(=O)c1ccc(-c2ccc([C@H](C)Nc3nc(C)nc4cc(OC)c(OC)cc34)s2)cc1 (stereo in doubt) [Example 141, 4-(5-{1-[(6,7-dimethoxy-2-methylquinazolin-4-yl)amino]ethyl}thiophen-2-yl)-N-propylbenzamide]		25%
COc1cc2nc(C)nc(N[C@@H](C)c3ccc(-c4ccc(S(C)(=O)=O)cc4)s3)c2cc1OC (stereo in doubt) [Example 149, 6,7-dimethoxy-2-methyl-N-[1-{5-[4-(methylsulfonyl)phenyl]thiophen-2-yl}ethyl]quinazolin-4-amine]	17%	
COc1cc2nc(C)nc(N[C@@H](C)c3ccc(-c4cccc(OC(F)(F)F)c4)s3)c2cc1OC (stereo in doubt) [Example 151, 6,7-dimethoxy-2-methyl-N-[1-{5-[3-(trifluoromethoxy)phenyl]thiophen-2-yl}ethyl]quinazolin-4-amine]		51%
COc1cc2nc(C)nc(N[C@@H](C)c3ccc(-c4ccc5c(c4)OCO5)s3)c2cc1OC (stereo in doubt) [Example 163, N-{1-[5-(1,3-benzodioxol-5-yl)thiophen-2-yl]ethyl}-6,7-dimethoxy-2-methylquinazolin-4-amine]	35%	42%
COc1cc2nc(C)nc(N[C@@H](C)c3ccc(-c4cccc(NS(C)(=O)=O)c4)s3)c2cc1OC (stereo in doubt) [Example 165, N-[3-(5-{1-[(6,7-dimethoxy-2-methylquinazolin-4-yl)amino]ethyl}thiophen-2-yl)phenyl]methanesulfonamide]	32%	
COc1cccc(-c2ccc([C@H](C)Nc3nc(C)nc4cc(OC)c(OC)cc34)s2)c1 (stereo in doubt) [Example 167, 6,7-dimethoxy-N-{1-[5-(3-methoxyphenyl)thiophen-2-yl]ethyl}-2-methylquinazolin-4-amine]	37%	40%
COc1cc2nc(C)nc(N[C@@H](C)c3ccc(-c4cccc(C(F)(F)F)c4)s3)c2cc1OC (stereo in doubt) [Example 168, 6,7-dimethoxy-2-methyl-N-[1-{5-[3-(trifluoromethyl)phenyl]thiophen-2-yl}ethyl]quinazolin-4-amine]	32%	38%
COc1cc2nc(C)nc(N[C@@H](C)c3ccc(-c4cccc(S(C)(=O)=O)c4)s3)c2cc1OC (stereo in doubt) [Example 173, 6,7-dimethoxy-2-methyl-N-[1-{5-[3-(methylsulfonyl)phenyl]thiophen-2-yl}ethyl]quinazolin-4-amine]	48%	
COc1cc2nc(C)nc(N[C@@H](C)c3ccc(-c4ccc(C(=O)N(C)C)cc4)s3)c2cc1OC (stereo in doubt) [Example 176, 4-(5-{1-[(6,7-dimethoxy-2-methylquinazolin-4-yl)amino]ethyl}thiophen-2-yl)-N,N-dimethylbenzamide]	42%	
